# Measurements reported in EP1171107B1, “USE OF A PHARMACEUTICAL COMPOSITION IN THE MANUFACTURE OF A MEDICAMENT FOR THE TREATMENT OF PATHOLOGICAL CONDITIONS OF THE EYE CAUSED BY BACTERIA, VIRUSES, FUNGI, YEASTS AND PROTOZOA” (Dr. GERHARD MANN chem.-pharm. Fabrik GmbH, priority 1999, dated 2000).
# How the values were obtained:
# Assay type in all cases: cell-based
# H.influenzae [1] = assay: Qualitative examination: enrichment of the inoculated test preparation in broth
# How it was run: (§1)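 Test preparations (5 ml) inoculated with ~10^5 CFU/ml; after 2, 6, 8, 24, 32, 48 and 72 h, centrifuged, washed and resuspended in NaCl-peptone buffer. 2 ml enriched in 20 ml Caso broth (Fildes medium for H. influenzae), incubated up to 4 days at 33±2°C; negative enrichment indicates elimination of inoculum.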
# P.aeruginosa = assay: as above
# How it was run: as §1
# S.epidermidis [2] = assay: Quantitative germ count (re-isolation, surface method) after inoculating the test preparation; conditions: Ausgangskeimzahl 2,1 x 10^5 KBE/ml
# How it was run: (§2)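 Test preparations were contaminated with ca. 10^5 CFU/ml of each strain, then sampled at 2, 6, 8, 24, 32, 48 and 72 h. Cells were centrifuged 10 min at 3000 rpm, washed in NaCl-peptone buffer, resuspended and spiral-plated on Caso agar at 33±2°C for max. 4 days. Detection limit was 100 CFU/ml.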
# E.coli [3] = assay: as above; conditions: Ausgangskeimzahl 2,7 x 10^5 KBE/ml
# H.influenzae [4] = assay: as above; conditions: Ausgangskeimzahl 2,8 x 10^5 KBE/ml
# How it was run: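 Surviving germs were counted by the surface method: an aliquot was spiral-plated on Kochblut-Agar and incubated at 33±2°C for max. 4 Tage, giving re-isolated counts in KBE/ml with a detection limit of 100 KBE/ml. Initial germ counts were also set by spiral-plater surface plating. The H. influenzae strain was pretested biochemically for identity and purity.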
# Sc. pneumoniae [5] = assay: as above; conditions: Ausgangskeimzahl 3,7 x 10^5 KBE/ml
# How it was run: as §2
# S.aureus [6] = assay: as above; conditions: Ausgangskeimzahl 2,6 x 10^5 KBE/ml
# How it was run: as §2
# E.coli [7] = assay: Qualitative examination: enrichment of the inoculated test preparation in broth
# How it was run: as §1
# S.epidermidis [8] = assay: as above
# How it was run: as §1
# Sc. pneumoniae [9] = assay: as above
# How it was run: as §1
# S.aureus [10] = assay: as above
# How it was run: as §1
substance,measurement,setting,value
"Benzalkoniumchlorid [Benzalkoniumchlorid 0,006 Gew.-%]",Ergebnis der Reisolierung qualitiativ (+/-) nach Anreicherung,H.influenzae [1]; 2 h after inoculation,-
same,Ergebnis der Reisolierung qualitiativ (+/-) nach Anreicherung,H.influenzae [1]; 4 h after inoculation,-
same,Ergebnis der Reisolierung qualitiativ (+/-) nach Anreicherung,H.influenzae [1]; 6 h after inoculation,-
same,Ergebnis der Reisolierung qualitiativ (+/-) nach Anreicherung,H.influenzae [1]; 8 h after inoculation,-
same,Ergebnis der Reisolierung qualitiativ (+/-) nach Anreicherung,H.influenzae [1]; 24 h after inoculation,-
same,Ergebnis der Reisolierung qualitiativ (+/-) nach Anreicherung,H.influenzae [1]; 32 h after inoculation,-
same,Ergebnis der Reisolierung qualitiativ (+/-) nach Anreicherung,H.influenzae [1]; 48 h after inoculation,-
same,Ergebnis der Reisolierung qualitiativ (+/-) nach Anreicherung,H.influenzae [1]; 72 h after inoculation,-
same,Ergebnis der Reisolierung qualitiativ (+/-) nach Anreicherung,P.aeruginosa; 2 h after inoculation,-
same,Ergebnis der Reisolierung qualitiativ (+/-) nach Anreicherung,P.aeruginosa; 4 h after inoculation,-
same,Ergebnis der Reisolierung qualitiativ (+/-) nach Anreicherung,P.aeruginosa; 6 h after inoculation,-
same,Ergebnis der Reisolierung qualitiativ (+/-) nach Anreicherung,P.aeruginosa; 8 h after inoculation,-
same,Ergebnis der Reisolierung qualitiativ (+/-) nach Anreicherung,P.aeruginosa; 24 h after inoculation,-
same,Ergebnis der Reisolierung qualitiativ (+/-) nach Anreicherung,P.aeruginosa; 32 h after inoculation,-
same,Ergebnis der Reisolierung qualitiativ (+/-) nach Anreicherung,P.aeruginosa; 48 h after inoculation,-
same,Ergebnis der Reisolierung qualitiativ (+/-) nach Anreicherung,P.aeruginosa; 72 h after inoculation,-
same,Ergebnis der Reisolierung (in KBE/ml),S.epidermidis [2]; 2 h after inoculation,<100 KBE/ml
same,Ergebnis der Reisolierung (in KBE/ml),S.epidermidis [2]; 4 h after inoculation,<100 KBE/ml
same,Ergebnis der Reisolierung (in KBE/ml),S.epidermidis [2]; 6 h after inoculation,<100 KBE/ml
same,Ergebnis der Reisolierung (in KBE/ml),S.epidermidis [2]; 8 h after inoculation,<100 KBE/ml
same,Ergebnis der Reisolierung (in KBE/ml),S.epidermidis [2]; 24 h after inoculation,<100 KBE/ml
same,Ergebnis der Reisolierung (in KBE/ml),S.epidermidis [2]; 32 h after inoculation,<100 KBE/ml
same,Ergebnis der Reisolierung (in KBE/ml),S.epidermidis [2]; 48 h after inoculation,<100 KBE/ml
same,Ergebnis der Reisolierung (in KBE/ml),S.epidermidis [2]; 72 h after inoculation,<100 KBE/ml
same,Ergebnis der Reisolierung (in KBE/ml),E.coli [3]; 2 h after inoculation,<100 KBE/ml
same,Ergebnis der Reisolierung (in KBE/ml),E.coli [3]; 4 h after inoculation,<100 KBE/ml
same,Ergebnis der Reisolierung (in KBE/ml),E.coli [3]; 6 h after inoculation,<100 KBE/ml
same,Ergebnis der Reisolierung (in KBE/ml),E.coli [3]; 8 h after inoculation,<100 KBE/ml
same,Ergebnis der Reisolierung (in KBE/ml),E.coli [3]; 24 h after inoculation,<100 KBE/ml
same,Ergebnis der Reisolierung (in KBE/ml),E.coli [3]; 32 h after inoculation,<100 KBE/ml
same,Ergebnis der Reisolierung (in KBE/ml),E.coli [3]; 48 h after inoculation,<100 KBE/ml
same,Ergebnis der Reisolierung (in KBE/ml),E.coli [3]; 72 h after inoculation,<100 KBE/ml
same,Ergebnis der Reisolierung (in KBE/ml),H.influenzae [4]; 2 h after inoculation,<100 KBE/ml
same,Ergebnis der Reisolierung (in KBE/ml),H.influenzae [4]; 4 h after inoculation,<100 KBE/ml
same,Ergebnis der Reisolierung (in KBE/ml),H.influenzae [4]; 6 h after inoculation,<100 KBE/ml
same,Ergebnis der Reisolierung (in KBE/ml),H.influenzae [4]; 8 h after inoculation,<100 KBE/ml
same,Ergebnis der Reisolierung (in KBE/ml),H.influenzae [4]; 24 h after inoculation,<100 KBE/ml
same,Ergebnis der Reisolierung (in KBE/ml),H.influenzae [4]; 32 h after inoculation,<100 KBE/ml
same,Ergebnis der Reisolierung (in KBE/ml),H.influenzae [4]; 48 h after inoculation,<100 KBE/ml
same,Ergebnis der Reisolierung (in KBE/ml),H.influenzae [4]; 72 h after inoculation,<100 KBE/ml
same,Ergebnis der Reisolierung (in KBE/ml),Sc. pneumoniae [5]; 2 h after inoculation,<100 KBE/ml
same,Ergebnis der Reisolierung (in KBE/ml),Sc. pneumoniae [5]; 4 h after inoculation,<100 KBE/ml
same,Ergebnis der Reisolierung (in KBE/ml),Sc. pneumoniae [5]; 6 h after inoculation,<100 KBE/ml
same,Ergebnis der Reisolierung (in KBE/ml),Sc. pneumoniae [5]; 8 h after inoculation,<100 KBE/ml
same,Ergebnis der Reisolierung (in KBE/ml),Sc. pneumoniae [5]; 24 h after inoculation,<100 KBE/ml
same,Ergebnis der Reisolierung (in KBE/ml),Sc. pneumoniae [5]; 32 h after inoculation,<100 KBE/ml
same,Ergebnis der Reisolierung (in KBE/ml),Sc. pneumoniae [5]; 48 h after inoculation,<100 KBE/ml
same,Ergebnis der Reisolierung (in KBE/ml),Sc. pneumoniae [5]; 72 h after inoculation,<100 KBE/ml
same,Ergebnis der Reisolierung (in KBE/ml),S.aureus [6]; 2 h after inoculation,<100 KBE/ml
same,Ergebnis der Reisolierung (in KBE/ml),S.aureus [6]; 4 h after inoculation,<100 KBE/ml
same,Ergebnis der Reisolierung (in KBE/ml),S.aureus [6]; 6 h after inoculation,<100 KBE/ml
same,Ergebnis der Reisolierung (in KBE/ml),S.aureus [6]; 8 h after inoculation,<100 KBE/ml
same,Ergebnis der Reisolierung (in KBE/ml),S.aureus [6]; 24 h after inoculation,<100 KBE/ml
same,Ergebnis der Reisolierung (in KBE/ml),S.aureus [6]; 32 h after inoculation,<100 KBE/ml
same,Ergebnis der Reisolierung (in KBE/ml),S.aureus [6]; 48 h after inoculation,<100 KBE/ml
same,Ergebnis der Reisolierung (in KBE/ml),S.aureus [6]; 72 h after inoculation,<100 KBE/ml
same,Ergebnis der Reisolierung qualitiativ (+/-) nach Anreicherung,E.coli [7]; 2 h after inoculation,-
same,Ergebnis der Reisolierung qualitiativ (+/-) nach Anreicherung,E.coli [7]; 4 h after inoculation,-
same,Ergebnis der Reisolierung qualitiativ (+/-) nach Anreicherung,E.coli [7]; 6 h after inoculation,-
same,Ergebnis der Reisolierung qualitiativ (+/-) nach Anreicherung,E.coli [7]; 8 h after inoculation,-
same,Ergebnis der Reisolierung qualitiativ (+/-) nach Anreicherung,E.coli [7]; 24 h after inoculation,-
same,Ergebnis der Reisolierung qualitiativ (+/-) nach Anreicherung,E.coli [7]; 32 h after inoculation,-
same,Ergebnis der Reisolierung qualitiativ (+/-) nach Anreicherung,E.coli [7]; 48 h after inoculation,-
same,Ergebnis der Reisolierung qualitiativ (+/-) nach Anreicherung,E.coli [7]; 72 h after inoculation,-
same,Ergebnis der Reisolierung qualitiativ (+/-) nach Anreicherung,S.epidermidis [8]; 2 h after inoculation,-
same,Ergebnis der Reisolierung qualitiativ (+/-) nach Anreicherung,S.epidermidis [8]; 4 h after inoculation,-
same,Ergebnis der Reisolierung qualitiativ (+/-) nach Anreicherung,S.epidermidis [8]; 6 h after inoculation,-
same,Ergebnis der Reisolierung qualitiativ (+/-) nach Anreicherung,S.epidermidis [8]; 8 h after inoculation,-
same,Ergebnis der Reisolierung qualitiativ (+/-) nach Anreicherung,S.epidermidis [8]; 24 h after inoculation,-
same,Ergebnis der Reisolierung qualitiativ (+/-) nach Anreicherung,S.epidermidis [8]; 32 h after inoculation,-
same,Ergebnis der Reisolierung qualitiativ (+/-) nach Anreicherung,S.epidermidis [8]; 48 h after inoculation,-
same,Ergebnis der Reisolierung qualitiativ (+/-) nach Anreicherung,S.epidermidis [8]; 72 h after inoculation,-
same,Ergebnis der Reisolierung qualitiativ (+/-) nach Anreicherung,Sc. pneumoniae [9]; 2 h after inoculation,-
same,Ergebnis der Reisolierung qualitiativ (+/-) nach Anreicherung,Sc. pneumoniae [9]; 4 h after inoculation,-
same,Ergebnis der Reisolierung qualitiativ (+/-) nach Anreicherung,Sc. pneumoniae [9]; 6 h after inoculation,-
same,Ergebnis der Reisolierung qualitiativ (+/-) nach Anreicherung,Sc. pneumoniae [9]; 8 h after inoculation,-
same,Ergebnis der Reisolierung qualitiativ (+/-) nach Anreicherung,Sc. pneumoniae [9]; 24 h after inoculation,-
same,Ergebnis der Reisolierung qualitiativ (+/-) nach Anreicherung,Sc. pneumoniae [9]; 32 h after inoculation,-
same,Ergebnis der Reisolierung qualitiativ (+/-) nach Anreicherung,Sc. pneumoniae [9]; 48 h after inoculation,-
same,Ergebnis der Reisolierung qualitiativ (+/-) nach Anreicherung,Sc. pneumoniae [9]; 72 h after inoculation,-
same,Ergebnis der Reisolierung qualitiativ (+/-) nach Anreicherung,S.aureus [10]; 2 h after inoculation,-
same,Ergebnis der Reisolierung qualitiativ (+/-) nach Anreicherung,S.aureus [10]; 4 h after inoculation,-
same,Ergebnis der Reisolierung qualitiativ (+/-) nach Anreicherung,S.aureus [10]; 6 h after inoculation,-
same,Ergebnis der Reisolierung qualitiativ (+/-) nach Anreicherung,S.aureus [10]; 8 h after inoculation,-
same,Ergebnis der Reisolierung qualitiativ (+/-) nach Anreicherung,S.aureus [10]; 24 h after inoculation,-
same,Ergebnis der Reisolierung qualitiativ (+/-) nach Anreicherung,S.aureus [10]; 32 h after inoculation,-
same,Ergebnis der Reisolierung qualitiativ (+/-) nach Anreicherung,S.aureus [10]; 48 h after inoculation,-
same,Ergebnis der Reisolierung qualitiativ (+/-) nach Anreicherung,S.aureus [10]; 72 h after inoculation,-
